From publication PMC4106900 (Journal of medicinal chemistry, 2012)
pKi: −log10 of the molar value. Where a name gives a salt, the structure may show the parent alone.

What was measured:
[1] = cited from earlier work; for time of maximum uptake in the brain post injection: normal mice
S1Rs = S1Rs (Mus musculus, UniProt O55242); assay: Small-animal PET blocking studies of [18F]13 binding in brain; assay type: in vivo; conditions: pre-treatment 1 mg/kg, 10 min prior to iv [18F]13, whole mouse brain
Sequence of S1Rs (O55242 whole entry): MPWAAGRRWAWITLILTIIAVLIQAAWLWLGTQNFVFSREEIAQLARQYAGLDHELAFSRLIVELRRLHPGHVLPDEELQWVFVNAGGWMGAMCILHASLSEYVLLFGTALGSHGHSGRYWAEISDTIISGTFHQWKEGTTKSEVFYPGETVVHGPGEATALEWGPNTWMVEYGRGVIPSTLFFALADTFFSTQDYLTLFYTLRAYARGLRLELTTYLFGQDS

S1R = conditions: read-out: Ki for S1R; cited from earlier work
[2] = Stability of formulated [18F]13 by analytical reverse-phase HPLC; assay type: physicochemical; conditions: saline/ethanol (9:1, total 10 mL)
[3] = Small-animal PET imaging, baseline brain uptake of [18F]13; assay type: in vivo, mouse
[4] = Ex vivo determination of radiometabolites in mouse plasma, liver and brain
[5] = system: 59 targets (non-SR sites); assay: NovaScreen and in-house profile of 59 targets; assay type: binding; conditions: 10,000 nM screening concentration
α2-adrenoceptors = assay: NovaScreen radioligand displacement screen; assay type: binding; conditions: 100 nM screening concentration
[6] = system: peripheral muscarinic receptors; assay: NovaScreen radioligand displacement screen; assay type: binding; conditions: 100 nM screening concentration
[7] = system: neuronal (α-bungarotoxin insensitive) nicotinic receptors; assay: NovaScreen radioligand displacement screen; assay type: binding; conditions: 100 nM screening concentration
opioid receptors = assay: Radioligand displacement screen; assay type: binding; conditions: 100 nM screening concentration
calcium L type channels = assay: NovaScreen radioligand displacement screen; assay type: binding; conditions: 100 nM screening concentration
sodium, site 2 channels = assay: NovaScreen radioligand displacement screen; assay type: binding; conditions: 100 nM screening concentration
acetylcholine esterase = acetylcholine esterase (Homo sapiens, UniProt P22303); assay: NovaScreen radioligand displacement screen; assay type: binding; conditions: 100 nM screening concentration
Sequence of acetylcholine esterase (P22303 32-614): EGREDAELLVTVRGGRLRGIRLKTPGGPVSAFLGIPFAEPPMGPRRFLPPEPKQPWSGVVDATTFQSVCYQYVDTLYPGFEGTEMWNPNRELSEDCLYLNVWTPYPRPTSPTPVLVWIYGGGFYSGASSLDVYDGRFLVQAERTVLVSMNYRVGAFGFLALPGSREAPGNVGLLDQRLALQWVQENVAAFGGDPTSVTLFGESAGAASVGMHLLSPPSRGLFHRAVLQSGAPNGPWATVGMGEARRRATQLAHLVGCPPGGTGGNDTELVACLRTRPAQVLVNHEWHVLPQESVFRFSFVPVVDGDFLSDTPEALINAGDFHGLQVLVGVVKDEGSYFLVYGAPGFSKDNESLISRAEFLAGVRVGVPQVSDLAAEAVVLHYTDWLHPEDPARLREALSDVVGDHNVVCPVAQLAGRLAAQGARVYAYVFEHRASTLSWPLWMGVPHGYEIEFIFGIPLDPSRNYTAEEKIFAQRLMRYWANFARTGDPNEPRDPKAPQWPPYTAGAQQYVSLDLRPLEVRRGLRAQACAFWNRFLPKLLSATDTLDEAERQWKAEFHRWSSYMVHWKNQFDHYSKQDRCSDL

[8] = In vitro half-life in rat liver microsomes
[9] = biological target: emopamil binding protein (EBP); conditions: read-out: Ki for EBP; cited from earlier work
[10] = biological target: vesicular acetylcholine transporter (VAChT); conditions: read-out: Ki for VAChT; cited from earlier work

COc1cc(CCN2CCN(CCCc3ccccc3)CC2)ccc1OC[18F] [compound 4]
time of maximum uptake in the brain post injection [1]: 30 min

FCCC1OC2(CCN(Cc3ccccc3)CC2)c2ccccc21 (centres unmarked) [compound 8]
brain level at 60 min post injection as percent of maximum ([1]; mouse brain, biodistribution): 81% | time of maximum uptake in the brain post injection [1]: 30 min

CN(C)CCN(C)CCc1ccc(Cl)c(Cl)c1 [compound 18, N-[2-(3,4-dichlorophenyl)ethyl]-N-methyl-2-(dimethylamino)-ethylamine]
reduction of [18F]13 binding in the brain at 60 min (S1Rs): 81%

CCCc1ccc2c(c1)sc(=O)n2CCN1CCCCCC1 [compound 9]
pKi (S1R): 9.25

O=c1sc2cc(CCCF)ccc2n1CCN1CCCCCC1 [[^18F]13, 6-(3-fluoropropyl)-3-(2-(azepan-1-yl)ethyl)benzo[d]thiazol-2(3H)-one]
time formulated tracer shown to be stable [2]: at least 5.5 hours | brain uptake at 60 min ([3]; baseline TAC, whole mouse brain): 6 %ID/g | maximum uptake in brain ([3]; baseline TAC, whole mouse brain, within the first few minutes): ~ 17 %ID/g | brain uptake at 60 min post injection as percent of maximum ([3]; mouse brain): 65% | percentage of intact tracer in plasma ([4]; 30 min post administration): 60% | percentage of intact tracer in plasma ([4]; 60 min post administration): 50% | percentage of intact tracer in brain ([4]; throughout the study (30 and 60 min)): 100%

O=c1sc2cc(CCCF)ccc2n1CCN1CCCCCC1 [compound 13, 3-(2-(azepan-1-yl)ethyl)-6-(3-fluoropropyl)benzo[d]thiazol-2(3H)-one hydrochloride]
displacement of the radioligand [5]: < 50% | displacement of the radioligand (α2-adrenoceptors): < 50% | displacement of the radioligand [6]: < 50% | displacement of the radioligand [7]: < 50% | displacement of the radioligand (opioid receptors): < 50% | displacement of the radioligand (calcium L type channels): < 50% | displacement of the radioligand (sodium, site 2 channels): < 50% | displacement of the radioligand (acetylcholine esterase): < 50% | clearance [8]: 0.18 mL/min/g

COc1cc(CCN2CCN(CCCc3ccccc3)CC2)ccc1O[11CH3] [compound 3]
pKi [9]: 8.77 | pKi [10]: 7.30
